# Assay results taken from patent US20080051464A1, “Protein phosphatase inhibitors” (The Cleveland Clinic Foundation, priority 2006, published 2008).
# How the values were obtained:
# [1] = tested on: SHP-1 substrate pLck-pY394 in Jurkat T cells; assay: induction of pLck-pY394 in Jurkat cells (SDS-PAGE/Western blotting); format: cell-based, human
# Protocol: (§1) Jurkat cells in culture medium (3×10^6 cells/ml, 1 ml/tube) were treated with agents for designated times at room temperature. After brief centrifuging in a microfuge (4,000 rpm, 2 min), the cell pellet was lysed on ice for 30 min in 100 μl of cold lysis buffer (1% NP40, 50 mM Tris, pH 7.4, 150 mM NaCl, 20 mM NaF, 0.2 mM Na3VO4 and 1 mM Na3MO4) containing a cocktail of proteinase inhibitors (Sigma, 1 tablet/10 ml). The lysates were cleared by centrifuging (14,000 rpm, 10 min) in a microfuge at 4° C. to remove insoluble parts, mixed with equal volume of 2×SDS-PAGE sample buffer, boiled for 5 min and analyzed (˜3×10^5 cells/well) by SDS-PAGE/Western blotting. Relative intensities of phosphotyrosine bands were quantified through densitometry analysis.
# as §1, with “blotting as described previously (23, 24).” for “blotting.”
# as §1, with “blotting as described previously (17, 18).” for “blotting.”
# pERK1/2 in Jurkat cells = pERK1/2 in Jurkat cells (Western blotting); format: cell-based, human
# Protocol: as §1
# as §1, with “blotting as described previously (17, 18).” for “blotting.”
# [2] = tested on: pLck-pY505 (dephosphorylated by PTPase CD45) in Jurkat cells; assay: pLck-pY505 in Jurkat cells (Western blotting); format: cell-based, human; conditions: L5-treated Jurkat cells
# Protocol: as §1
# [3] = tested on: IFNγ+ cells in human peripheral blood; assay: induction of IFNγ+ cells in human peripheral blood in vitro (ELISPOT); format: cell-based
# Protocol: For induction of human primary IFNγ+ cells, heparinized peripheral blood samples were obtained by vein-puncture from healthy volunteers following an established protocol approved by the Institutional Review Board (IRB) of Cleveland Clinic. To mimic in vivo drug-exposure, human peripheral blood samples were directly treated with different agents without pre-separation of white blood cells from other blood components. Blood samples (0.1 ml/sample) were mixed with the agents, incubated at 37° C. for 4 hrs, diluted with 5 volumes of hypotonic solution (10 mM Tris, pH 7.4; 10 mM NaCl) to lyse RBC and centrifuged to pellet WBCs. The pellets were washed with hypotonic solution one time, re-suspended in RPMI 1640 medium (10% FCS) and used for ELISPOT assays (Human IFNγ ELISPOT Kit, R & D System) to quantify human IFNγ+ cells as outlined above.
# [4] = tested on: spleen pLck and IFNγ+ cells; assay: in vivo induction of spleen pLck and IFNγ+ cells in mice; set-up: species or system mouse
# Protocol: Spleens were harvested one hour post-treatment on day 4 and processed into splenocytes, which were used for assessing pLck levels by SDS-PAGE/Western blotting and for quantification of IFNγ+ cells by ELISPOT assays. Mice were also treated with L5 (˜10 mg/kg body weight, daily, s.c., n=2) to evaluate the toxicity of the compounds in vivo.
# B16 melanoma tumors [5] = assay: B16 melanoma tumor growth in C57BL/6J mice; format: in vivo
# Protocol: Tumor volume (n=5) was measured during the study period and calculated using the formula for a prolate spheroid. Student's t test was used for assessing the significance of tumor volume differences among differential treatment groups. Mouse viability (daily) and body weights (weekly) were also recorded during the study period. Major internal organs of the mice were inspected visually upon their termination at the end of the experiment.
# To assess anti-tumor activity, C57BL/6J mice (˜8-week old, female, Taconic Farms, Germantown, N.Y.) were inoculated (s.c.) at the flanks with B16 melanoma cells (4×10^4 cells/site). […] Tumor volume (n=5) was measured during the study period and calculated using the formula for a prolate spheroid. Student's t test was used for assessing the significance of tumor volume differences among differential treatment groups. Mouse viability (daily) and body weights (weekly) were also recorded during the study period. Major internal organs of the mice were inspected visually upon their termination at the end of the experiment.
# B16 melanoma tumors [6] = assay: B16 melanoma tumor growth in athymic nude mice; format: in vivo, mouse; conditions: 3 mg/kg/day, oral, M-F/week
# Protocol: To assess L5 anti-tumor activity, C57BL/6J mice or athymic nude mice (˜8-week old, female, Taconic Farms, Germantown, N.Y.) were inoculated (s.c.) at the flanks with B16 melanoma cells (4×10^4 cells/site). Four days post-inoculation, the mice were treated with PBS (Control) or L5 (˜3 mg/kg body weight/daily, Monday—Friday/week, oral gavage). Tumor volume (n=5) was measured during the study period and calculated using the formula for a prolate spheroid. Student's t test was used for assessing the significance of tumor volume differences among differential treatment groups. Mouse viability (daily) and body weights (weekly) were also recorded during the study period. Major internal organs of the mice were inspected visually upon their termination at the end of the experiment.
compound,measurement,setting,value
O=C1C=CC(=O)C(c2cc(Cl)ccc2Cl)=C1 [L5],level capable of inhibiting SHP-1 in Jurkat T cells,[1],10 ng/mL
same,level capable of inhibiting SHP-1 in Jurkat T cells (molar),[1],~40 nM
same,pLck-pY394 induction,"[1]; 0.01 μg/ml, 10 min",2-3 fold
same,pLck-pY394 induction,"[1]; 0.1, 1 or 3 μg/ml, 10 min",> 4 folds
same,effective dose for pLck-pY394 induction / intracellular SHP-1 inhibition,"[1]; Jurkat cells, 10 min",≥ 0.01 μg/ml
same,pLck-pY394 induction in comparison to untreated control,"[1]; Jurkat cells, 10 min, densitometry (FIG. 2)",~10 fold
same,potency relative to SSG,[1]; by weight,"approximately 1,000 fold"
same,potency relative to SSG,[1]; in equal molar ratios,~350 fold
same,levels of pERK1/2,pERK1/2 in Jurkat cells; 1 μg/ml,reduced the levels of pERK1/2
same,effect on SHP-2 or CD45 phosphatases,pERK1/2 in Jurkat cells; 10-100 ng/ml in Jurkat cells,did not affect
same,levels of pERK1/2,pERK1/2 in Jurkat cells; lower doses (0.1 to 0.001 μg/ml),not at lower doses
same,pLck-pY505,[2],little effects
same,maximal induction of IFNγ+ cells in human peripheral blood,[3]; 8 μg/ml,20 fold
same,effectiveness compared with SSG in inducing IFNγ+ cells,"[3]; maximal induction at a comparable dose, human peripheral blood",~20 fold
same,effect on pLck,[4]; 1 mg/kg of body weight,only a minor effect
same,increase of splenocyte pLck,"[4]; ~3 mg/kg of body weight, s.c., daily, 4 days",~3.3 fold
same,increase of spleen IFNγ+ cells,"[4]; ~3 mg/kg, s.c., daily, 4 days",approximately 3 fold
same,survival of treated mice,"B16 melanoma tumors [5]; 1 mg/kg daily, oral gavage",survived till the end of the study
same,abnormality in behavior or gross anatomy,"B16 melanoma tumors [5]; 3 mg/kg/day, oral",no apparent abnormality in behavior or gross anatomy
same,survival of treated mice,"B16 melanoma tumors [5]; 3 mg/kg/day, oral",survived until the end of the study
same,growth inhibition of B16 tumors vs control,"B16 melanoma tumors [5]; 3 mg/kg/day, oral, M-F/week, end of study",~83%
same,B16 melanoma tumors in athymic nude mice,B16 melanoma tumors [6],not inhibited
